Legend:
Type in all cases: functional
Conditions in all cases: at 10 µM
A549 = assay: Growth inhibition of human A549 cells after 48 hrs by cell counting analysis
MCF7 = assay: Growth inhibition of human MCF7 cells after 48 hrs by cell counting analysis
OVCAR-3 = assay: Growth inhibition of human OVCAR3 cells after 48 hrs by cell counting analysis
SF-268 = assay: Growth inhibition of human SF268 cells after 48 hrs by cell counting analysis
UO-31 = assay: Growth inhibition of human UO31 cells after 48 hrs by cell counting analysis
SN12C = assay: Growth inhibition of human SN12C cells after 48 hrs by cell counting analysis
UACC-62 = assay: Growth inhibition of human UACC62 cells after 48 hrs by cell counting analysis
SF-539 = assay: Growth inhibition of human SF539 cells after 48 hrs by cell counting analysis
M14 = assay: Growth inhibition of human M14 cells after 48 hrs by cell counting analysis
HCT-15 = assay: Growth inhibition of human HCT15 cells after 48 hrs by cell counting analysis
CAKI-1 = assay: Growth inhibition of human Caki1 cells after 48 hrs by cell counting analysis
LOX IMVI = assay: Growth inhibition of human LOXIMVI cells after 48 hrs by cell counting analysis
SF-295 = assay: Growth inhibition of human SF295 cells after 48 hrs by cell counting analysis
TK-10 = assay: Growth inhibition of human TK10 cells after 48 hrs by cell counting analysis
SNB-19 = assay: Growth inhibition of human SNB19 cells after 48 hrs by cell counting analysis
NCI-H23 = assay: Growth inhibition of human NCI-H23 cells after 48 hrs by cell counting analysis
UACC-257 = assay: Growth inhibition of human UACC257 cells after 48 hrs by cell counting analysis
SK-MEL-5 = assay: Growth inhibition of human SK-MEL-5 cells after 48 hrs by cell counting analysis
BT-549 = assay: Growth inhibition of human BT549 cells after 48 hrs by cell counting analysis
SK-MEL-28 = assay: Growth inhibition of human SK-MEL-28 cells after 48 hrs by cell counting analysis
HOP-62 = assay: Growth inhibition of human HOP62 cells after 48 hrs by cell counting analysis
EKVX = assay: Growth inhibition of human EKVX cells after 48 hrs by cell counting analysis
MOLT-4 = assay: Growth inhibition of human MOLT4 cells after 48 hrs by cell counting analysis
RXF 393 = assay: Growth inhibition of human RXF393 cells after 48 hrs by cell counting analysis
SK-MEL-2 = assay: Growth inhibition of human SK-MEL-2 cells after 48 hrs by cell counting analysis
HCC 2998 = assay: Growth inhibition of human HCC2998 cells after 48 hrs by cell counting analysis
ACHN = assay: Growth inhibition of human ACHN cells after 48 hrs by cell counting analysis
HOP-92 = assay: Growth inhibition of human HOP92 cells after 48 hrs by cell counting analysis
PC-3 = assay: Growth inhibition of human PC3 cells after 48 hrs by cell counting analysis
HCT-116 = assay: Growth inhibition of human HCT116 cells after 48 hrs by cell counting analysis
IGROV-1 = assay: Growth inhibition of human IGROV1 cells after 48 hrs by cell counting analysis
SR = assay: Growth inhibition of human SR cells after 48 hrs by cell counting analysis
Malme-3M = assay: Growth inhibition of human MALME-3M cells after 48 hrs by cell counting analysis
OVCAR-8 = assay: Growth inhibition of human OVCAR8 cells after 48 hrs by cell counting analysis
HL-60 = assay: Growth inhibition of human HL60 cells after 48 hrs by cell counting analysis
NCI-H226 = assay: Growth inhibition of human NCI-H226 cells after 48 hrs by cell counting analysis
K562 = assay: Growth inhibition of human K562 cells after 48 hrs by cell counting analysis
SW-620 = assay: Growth inhibition of human SW620 cells after 48 hrs by cell counting analysis
CCRF-CEM = assay: Growth inhibition of human CCRF-CEM cells after 48 hrs by cell counting analysis
KM12 = assay: Growth inhibition of human KM12 cells after 48 hrs by cell counting analysis
SK-OV-3 = assay: Growth inhibition of human SKOV3 cells after 48 hrs by cell counting analysis
T47D = assay: Growth inhibition of human T47D cells after 48 hrs by cell counting analysis
[1] = Growth inhibition of human NCI-ADR-RES cells after 48 hrs by cell counting analysis
U-251 = assay: Growth inhibition of human U251 cells after 48 hrs by cell counting analysis
[2] = Growth inhibition of human NCI-322M cells after 48 hrs by cell counting analysis
HT-29 = assay: Growth inhibition of human HT-29 cells after 48 hrs by cell counting analysis
RPMI-8226 = assay: Growth inhibition of human RPMI8226 cells after 48 hrs by cell counting analysis
NCI-H522 = assay: Growth inhibition of human NCI-H522 cells after 48 hrs by cell counting analysis
MDA-MB-435 = assay: Growth inhibition of human MDA-MB-435 cells after 48 hrs by cell counting analysis
SNB-75 = assay: Growth inhibition of human SNB75 cells after 48 hrs by cell counting analysis
MDA-MB-468 = assay: Growth inhibition of human MDA-MB-468 cells after 48 hrs by cell counting analysis
OVCAR-5 = assay: Growth inhibition of human OVCAR5 cells after 48 hrs by cell counting analysis
OVCAR-4 = assay: Growth inhibition of human OVCAR4 cells after 48 hrs by cell counting analysis
MDA-MB-231 = assay: Growth inhibition of human MDA-MB-231 cells after 48 hrs by cell counting analysis

In the case of Cc1ccc(-c2csc(NC(=O)CN3CCN(c4ccccc4)CC3)n2)cc1, the “growth inhibition (GI)” value (A549) is reported as 31.4%, the “growth inhibition (GI)” value (MCF7) is reported as 20.9% and the “growth inhibition (GI)” value (OVCAR-3) is reported as under 10%. For the same molecule, the “growth inhibition (GI)” value (SF-268) was 13.9%, the “growth inhibition (GI)” value (UO-31) was 48.2% and the “growth inhibition (GI)” value (SN12C) was 17%. For the same molecule, the “growth inhibition (GI)” value (UACC-62) was 23.6%, the “growth inhibition (GI)” value (SF-539) was under 10% and the “growth inhibition (GI)” value (M14) was under 10%. The “growth inhibition (GI)” value (HCT-15) was 10.6%, the “growth inhibition (GI)” value (CAKI-1) was 24.6% and the “growth inhibition (GI)” value (LOX IMVI) was 17.2%. The “growth inhibition (GI)” value (SF-295) was 27.3%, the “growth inhibition (GI)” value (TK-10) was under 10% and the “growth inhibition (GI)” value (SNB-19) was under 10%. For the same molecule, the “growth inhibition (GI)” value (NCI-H23) was 18.9%, the “growth inhibition (GI)” value (UACC-257) was under 10% and the “growth inhibition (GI)” value (SK-MEL-5) was 27.6%. For the same molecule, the “growth inhibition (GI)” value (BT-549) was under 10%, the “growth inhibition (GI)” value (SK-MEL-28) was under 10% and the “growth inhibition (GI)” value (HOP-62) was under 10%. For the same molecule, the “growth inhibition (GI)” value (EKVX) was 32.5%, the “growth inhibition (GI)” value (MOLT-4) was 23.7% and the “growth inhibition (GI)” value (RXF 393) was under 10%. The “growth inhibition (GI)” value (SK-MEL-2) was under 10%, the “growth inhibition (GI)” value (HCC 2998) was 15.2% and the “growth inhibition (GI)” value (ACHN) was under 10%. The “growth inhibition (GI)” value (HOP-92) was under 10%, the “growth inhibition (GI)” value (PC-3) was 31.1% and the “growth inhibition (GI)” value (HCT-116) was under 10%. The “growth inhibition (GI)” value (IGROV-1) was 33.8%, the “growth inhibition (GI)” value (SR) was under 10% and the “growth inhibition (GI)” value (Malme-3M) was under 10%. The “growth inhibition (GI)” value (OVCAR-8) was under 10%, the “growth inhibition (GI)” value (HL-60) was under 10% and the “growth inhibition (GI)” value (NCI-H226) was under 10%. The “growth inhibition (GI)” value (K562) was under 10%, the “growth inhibition (GI)” value (SW-620) was under 10% and the “growth inhibition (GI)” value (CCRF-CEM) was 13.4%. The “growth inhibition (GI)” value (KM12) was under 10%, the “growth inhibition (GI)” value (SK-OV-3) was under 10% and the “growth inhibition (GI)” value (T47D) was 20.8%. The “growth inhibition (GI)” value [1] was 21%, the “growth inhibition (GI)” value (U-251) was under 10% and the “growth inhibition (GI)” value [2] was 21.4%. For the same molecule, the “growth inhibition (GI)” value (HT-29) was under 10%, the “growth inhibition (GI)” value (RPMI-8226) was under 10% and the “growth inhibition (GI)” value (NCI-H522) was under 10%. The “growth inhibition (GI)” value (MDA-MB-435) was 17.6%, the “growth inhibition (GI)” value (SNB-75) was 12.1% and the “growth inhibition (GI)” value (MDA-MB-468) was 23.1%. For the same molecule, the “growth inhibition (GI)” value (OVCAR-5) was under 10%, the “growth inhibition (GI)” value (OVCAR-4) was 28.1% and the “growth inhibition (GI)” value (MDA-MB-231) was under 10%.

— ChEMBL document CHEMBL2150993, “Substituted thiazoles VII. Synthesis and antitumor activity of certain 2-(substituted amino)-4-phenyl-1,3-thiazole analogs” (2012)
